This note sets out measurements from ChEMBL document CHEMBL3045018, “Comparative QSTR study of saturated alcohols based on topological, constitutional, geometrical, and getaway descriptors” (Med Chem Res, 2009).

The test system of this data set is Tetrahymena pyriformis. The data set is described as follows: Toxicity in Tetrahymena pyriformis. Particulars: in vivo.
By pGI50 is commonly meant −log10 of the GI50, conventionally taken in molar units. Lower therefore signals a large GI50. For `CC(O)CCl` (stereo not given), the pGI50 was determined as 1.2446.

As for `OCCCl` [2-CHLOROETHANOL], the pGI50 was 1.5343.

Take `CCCC(C)O` (stereo not given) [2-PENTANOL]: the pGI50 is recorded as 1.1596.

For `OCCCCl` [3-Chloropropanol], the pGI50 came out at 1.1622.

For the compound `CC(C)CCO` [3-METHYLBUTANOL], the pGI50 was 1.0359.

In the case of `CCC(O)CC` [3-PENTANOL], the pGI50 came out at 1.2437.

In turn, `CCO` [ALCOHOL] registered a pGI50 of 1.9912.

`CCC(C)(C)O` [AMYLENE HYDRATE] yielded a pGI50 of 1.1729.

In turn, `CCC(C)O` (stereo not given) [BUTANOL] returned a pGI50 of 1.542.

As to `CCCCO` [BUTYL ALCOHOL], the pGI50 worked out at 1.4306.

In turn, `CC(C)CO` [ISOBUTANOL] returned a pGI50 of 1.3724.

Compound `CC(C)O` [ISOPROPYL ALCOHOL] returned a pGI50 of 1.8819.

In turn, `CO` [METHYL ALCOHOL] returned a negative-log GI50 (pGI50) of 2.6656.

`CCCO` [PROPANOL]: the pGI50 is listed as 1.7464.

In turn, `CC(C)(C)O` [TERT-BUTANOL] displayed a pGI50 of 1.7911.
